This note sets out measurements from patent US9302981B2, “Synthesis, methods of using, and compositions of cycloalkylmethylamines” (Reviva Pharmaceuticals, Inc., priority 2006, dated 2016).

Test [1] deals with human recombinant norepinephrine transporter (NET) (Homo sapiens (Human), UniProt P23975). Put plainly: Radioligand binding assay, norepinephrine transporter (MDS Pharma). Particulars: for nH (Hill coefficient): NET, slope of the competitive binding curve. On the procedure:
The human recombinant transporter proteins dopamine (DAT), norepinephrine (NET) and serotonin (SERT) were selected for the in vitro assays. […] The radioligand binding assays were carried out at four different test concentrations and the test concentrations were 1 nM, 10 nM, 0.1 μM, and 1 μM.
(§1) The assays were carried out in duplicates and the quantitative data are reported as IC50, Ki, and nH. Where presented, IC50 values were determined by a non-linear, least squares regression analysis using MathIQ™ (ID Business Solutions Ltd. UK). […] Where presented, the Hill coefficient (nH), defining the slope of the competitive binding curve, was calculated using MathIQ™.

For test [2], the target named is human recombinant dopamine transporter (DAT) (Homo sapiens (Human), UniProt Q01959). The experiment in a line: Radioligand binding assay, dopamine transporter (MDS Pharma). The conditions noted are these: for nH (Hill coefficient): DAT, slope of the competitive binding curve. On the procedure: (§2) The monoamine transporters inhibitory activities of selected compounds (54b and 54d) are reported herein. The compounds were evaluated at MDS Pharma services (22011 Drive SE, Bothell, Wash. 98021, USA) using well established radioligand binding assays protocols (Galli, A. et al., J. Exp. Biol. 1995, 198, 2197-2212; Giros, B. et al., Trends Pharmcol. Sci. 1993, 14, 43-49; Gu, H. et al., J. Biol. Chem. 1994, 269(10), 7124-7130; Shearman, L. P. et al, Am. J. Physiol., 1998, 275 (6 Pt 1), C1621-1629; Wolf, W. A. et al., J. Biol. Chem. 1992, 267(29), 20820-20825). The human recombinant transporter proteins dopamine (DAT), norepinephrine (NET) and serotonin (SERT) were selected for the in vitro assays. The CHO-K1 cells expressed with human recombinant dopamine transporter (DAT) (MDS catalog 220320) was used for evaluating the dopamine transporter inhibitory activity. Whereas, MDCK cells expressed with human recombinant transporters norepinephrine (NET) (MDS catalog no. 204410) and serotonin (SERT) (MDS catalog no. 274030) were used for evaluating the norepinephrine transporter (NET) and serotonin transporter (SERT) inhibitory activities, respectively. The radioligand binding assays were carried out at four different test concentrations and the test concentrations were 1 nM, 10 nM, 0.1 μM, and 1 μM.
as §1

Test [3] has as its target human recombinant serotonin transporter (SERT) (Homo sapiens (Human), UniProt P31645). The experiment in a line: Radioligand binding assay, serotonin transporter (MDS Pharma). Particulars: for nH (Hill coefficient): SERT, slope of the competitive binding curve. How it is done: as §2, §1

Molecules are shown by their SMILES. pIC50, pKi: −log10 of the molar value.

Sequence of human recombinant norepinephrine transporter (NET) (P23975 whole entry): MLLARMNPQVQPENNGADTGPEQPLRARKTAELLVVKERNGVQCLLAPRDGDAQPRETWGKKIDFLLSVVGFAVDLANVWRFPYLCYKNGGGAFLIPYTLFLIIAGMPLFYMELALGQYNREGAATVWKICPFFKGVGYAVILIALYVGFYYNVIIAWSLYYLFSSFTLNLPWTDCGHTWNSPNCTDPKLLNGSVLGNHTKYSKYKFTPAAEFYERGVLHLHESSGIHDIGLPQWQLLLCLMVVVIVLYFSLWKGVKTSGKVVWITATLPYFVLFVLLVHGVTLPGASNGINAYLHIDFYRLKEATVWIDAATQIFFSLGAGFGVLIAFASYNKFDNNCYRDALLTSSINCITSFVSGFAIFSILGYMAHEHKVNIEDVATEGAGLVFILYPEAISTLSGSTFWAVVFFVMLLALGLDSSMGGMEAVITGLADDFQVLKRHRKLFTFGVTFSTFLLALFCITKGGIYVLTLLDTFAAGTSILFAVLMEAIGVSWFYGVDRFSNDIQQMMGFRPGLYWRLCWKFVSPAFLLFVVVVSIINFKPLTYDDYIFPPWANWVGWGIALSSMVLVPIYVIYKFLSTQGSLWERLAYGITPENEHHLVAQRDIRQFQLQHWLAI

For `CCC(NC(CC(C)C)C1(c2ccc(Cl)cc2)CCC1)C(=O)OCC(C)C` (stereo not drawn) [Compound 54d, Isobutyl 2-(1-(1-(4-chlorophenyl)cyclobutyl)-3-methylbutylamino]butanoate], in test [1], the pIC50 was 6.74, the pKi was 6.74 and the “nH (Hill coefficient)” value is listed as 1.04. Further, in test [2], the pIC50 is 6.43, the pKi is 6.53 and the “nH (Hill coefficient)” value is 0.943. Besides, in test [3], the pIC50 was 6.38, the pKi was 7.17 and the “nH (Hill coefficient)” value came to 0.578.
In the case of `CCOC(=O)C(CC)NC(CC(C)C)C1(c2ccc(Cl)cc2)CCC1` (stereo not drawn) [Compound 54b, Ethyl 2-(1-(1-(4-chlorophenyl)cyclobutyl)-3-methylbutylamino]butanoate], in test [1], the negative-log IC50 (pIC50) was 6.92, the negative-log Ki (pKi) is 6.92 and the “nH (Hill coefficient)” value was found to be 0.832. Moreover, in test [2], the pIC50 was 7.24, the negative-log Ki (pKi) is 7.34 and the “nH (Hill coefficient)” value is reported as 0.826. In test [3], the pIC50 was 6.85, the pKi was 7.64 and the “nH (Hill coefficient)” value is 0.677.
